Measurements reported in PubChem BioAssay AID248 (DTP/NCI, 2004).
Several values for one entry are separate records, joined by “and”; a condition that tells them apart may be missing. Equal entries are not always repeated. Toxic doses and inconclusive results are not listed. No stated cut-off is given here; in the data, active means T/C of 150% or more; inactive means T/C below 125%.

System: L1210 leukemia ip in BDF1 mice, survival T/C
Assay: NCI In Vivo Anticancer Drug Screen. Data for tumor model L1210 Leukemia (intraperitoneal) in B6D2F1 (BDF1) mice
Conditions: endpoint: mean survival time, higher = longer survival
Summary of the method: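 Mice bearing the transplanted tumor received compound or vehicle. Survival of the treated group was divided by that of the vehicle-treated control group to give the ratio.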

[1] = dose: 100.0 mg/kg/injection, schedule: Q01DX001 (ip), vehicle: saline
[2] = dose: 200.0 mg/kg/injection, schedule: Q01DX001 (ip), vehicle: saline
[3] = dose: 400.0 mg/kg/injection, schedule: Q01DX001 (ip), vehicle: saline
[4] = dose: 100.0 mg/kg/injection, schedule: Q01DX009 (ip), vehicle: saline with Tween-80
[5] = dose: 100.0 mg/kg/injection, schedule: Q04DX003 (ip), vehicle: saline with Tween-80
[6] = dose: 200.0 mg/kg/injection, schedule: Q01DX009 (ip), vehicle: saline with Tween-80
[7] = dose: 200.0 mg/kg/injection, schedule: Q04DX003 (ip), vehicle: saline with Tween-80
[8] = dose: 400.0 mg/kg/injection, schedule: Q04DX003 (ip), vehicle: saline with Tween-80
[9] = dose: 400.0 mg/kg/injection, schedule: Q01DX009 (ip), vehicle: saline with Tween-80
[10] = dose: 100.0 mg/kg/injection, schedule: Q04DX002 (ip), vehicle: saline with Tween-80
[11] = dose: 200.0 mg/kg/injection, schedule: Q04DX002 (ip), vehicle: saline with Tween-80

Measured: T/C

CCOC(CN(Cc1ccc(OCc2ccccc2)c(OC)c1)S(=O)(=O)c1ccc(C)cc1)OCC
inactive: dose: 25.0 mg/kg/injection, schedule: Q01DX009 (ip), vehicle: water 102 % of control | dose: 50.0 mg/kg/injection, schedule: Q01DX009 (ip), vehicle: water 91 % of control | dose: 100.0 mg/kg/injection, schedule: Q01DX009 (ip), vehicle: water 105 % of control | dose: 200.0 mg/kg/injection, schedule: Q01DX009 (ip), vehicle: water 102 % of control | dose: 400.0 mg/kg/injection, schedule: Q01DX009 (ip), vehicle: water 100 % of control

Cn1cc(C(C)(C(=O)O)c2cn(C)c3ccccc23)c2ccccc21
inactive: [1] 104 % of control | [2] 102 % of control | [3] 102 % of control

N#CN1CCCC1
inactive: dose: 44.0 mg/kg/injection, schedule: Q01DX Z (ip), vehicle: saline 98 % of control | dose: 66.0 mg/kg/injection, schedule: Q01DX Z (ip), vehicle: saline 102 % of control

O=c1c(N=Nc2ccc(Br)cc2)c(O)n(-c2ccccc2Cl)c(=S)n1-c1ccccc1
inactive: dose: 75.0 mg/kg/injection, schedule: Q01DX001 (ip), vehicle: Klucel (hydroxypropylcellulose) (HPC) 90 % of control | dose: 150.0 mg/kg/injection, schedule: Q01DX001 (ip), vehicle: Klucel (hydroxypropylcellulose) (HPC) 101 % of control

Cc1ccc(COc2ccc(Cl)cc2Cn2ccnc2)cc1
inactive: dose: 100.0 mg/kg/injection, schedule: Q01DX009 (ip), vehicle: saline 102 % of control

CC1(O)c2cccc3c2C2(O)c4c1cccc4C(C)(O)c1cccc(c12)C3(C)O (centres undefined)
inactive: [4] 106 % of control | [5] 103 % of control and 108 % of control | [6] 105 % of control | [7] 114 % of control and 110 % of control | [8] 95 % of control and 101 % of control

O=C(O)CCN(Cc1ccccc1)Cc1ccccc1
inactive: [4] 101 % of control | [5] 108 % of control | [6] 98 % of control | [7] 88 % of control | [9] 98 % of control | [8] 104 % of control

CCC(=O)OCC1OC(n2cc(F)c(=O)[nH]c2=O)CC1OC(=O)CC (centres undefined)
inactive: dose: 50.0 mg/kg/injection, schedule: Q01DX001 (ip), vehicle: saline 101 % of control | dose: 89.0 mg/kg/injection, schedule: Q01DX015 (ip), vehicle: saline 117 % of control | [1] 101 % of control | dose: 100.0 mg/kg/injection, schedule: Q04DX003 (ip), vehicle: saline 104 % of control | [2] 101 % of control | dose: 200.0 mg/kg/injection, schedule: Q04DX003 (ip), vehicle: saline 114 % of control | dose: 264.0 mg/kg/injection, schedule: Q04DX003 (ip), vehicle: saline 111 % of control and 112 % of control | dose: 300.0 mg/kg/injection, schedule: Q01DX015 (ip), vehicle: saline 115 % of control | [3] 113 % of control | dose: 400.0 mg/kg/injection, schedule: Q04DX003 (ip), vehicle: saline 108 % of control

ClC1(Cl)C2/C=C/CCCCC21 (centres undefined)
inactive: dose: 100.0 mg/kg/injection, schedule: Q01DX005 (ip), vehicle: saline with Tween-80 105 % of control | [10] 92 % of control | dose: 200.0 mg/kg/injection, schedule: Q01DX005 (ip), vehicle: saline with Tween-80 92 % of control | [11] 113 % of control | dose: 400.0 mg/kg/injection, schedule: Q01DX005 (ip), vehicle: saline with Tween-80 92 % of control | dose: 400.0 mg/kg/injection, schedule: Q04DX002 (ip), vehicle: saline with Tween-80 95 % of control

CCOP(=O)(CCBr)Oc1ccc([N+](=O)[O-])cc1 (centres undefined)
inactive: dose: 0.5 mg/kg/injection, schedule: Q01DX001 (ip), vehicle: saline 97 % of control | dose: 1.0 mg/kg/injection, schedule: Q01DX001 (ip), vehicle: saline 97 % of control | dose: 2.0 mg/kg/injection, schedule: Q01DX001 (ip), vehicle: saline 103 % of control | dose: 4.0 mg/kg/injection, schedule: Q01DX001 (ip), vehicle: saline 107 % of control

Cl[SiH](Cl)c1ccccc1
inactive: [1] 96 % of control | [2] 96 % of control | [3] 90 % of control

O=C(O)c1ccccc1[N+](=O)[O-]
inactive: dose: 100.0 mg/kg/injection, schedule: Q01DX001 (ip), vehicle: Klucel (hydroxypropylcellulose) (HPC) 99 % of control | dose: 200.0 mg/kg/injection, schedule: Q01DX001 (ip), vehicle: Klucel (hydroxypropylcellulose) (HPC) 97 % of control | dose: 400.0 mg/kg/injection, schedule: Q01DX001 (ip), vehicle: Klucel (hydroxypropylcellulose) (HPC) 96 % of control

COC(=O)C1C2CC3C(OC(=O)C31C)C2I (centres undefined)
inactive: [1] 90 % of control | [2] 107 % of control | [3] 110 % of control

CC12CC3CC(C1)CC(NCCO)(C3)C2
inactive: dose: 10.0 mg/kg/injection, schedule: Q04DX002 (ip), vehicle: Klucel (hydroxypropylcellulose) (HPC) 87 % of control | dose: 20.0 mg/kg/injection, schedule: Q04DX002 (ip), vehicle: Klucel (hydroxypropylcellulose) (HPC) 91 % of control | dose: 40.0 mg/kg/injection, schedule: Q04DX002 (ip), vehicle: Klucel (hydroxypropylcellulose) (HPC) 91 % of control

O=C(O)c1ccc(CCCCCCl)cc1
inactive: [4] 103 % of control | [6] 111 % of control

O=C(O)c1cccc(Cl)c1.[Ni]
inactive: dose: 25.0 mg/kg/injection, schedule: Q04DX002 (ip), vehicle: Klucel (hydroxypropylcellulose) (HPC) 103 % of control | dose: 50.0 mg/kg/injection, schedule: Q04DX002 (ip), vehicle: Klucel (hydroxypropylcellulose) (HPC) 100 % of control | dose: 100.0 mg/kg/injection, schedule: Q04DX002 (ip), vehicle: Klucel (hydroxypropylcellulose) (HPC) 90 % of control

O=C(Nc1cc(Cl)c(Cl)cc1NC(=O)C(Cl)(Cl)Cl)C(Cl)(Cl)Cl
inactive: dose: 5.0 mg/kg/injection, schedule: Q01DX001 (ip), vehicle: other 97 % of control | dose: 10.0 mg/kg/injection, schedule: Q01DX001 (ip), vehicle: other 100 % of control

Nc1nc(N)c2nonc2n1
inactive: dose: 12.5 mg/kg/injection, schedule: Q01DX005 (ip), vehicle: other 97 % of control | dose: 25.0 mg/kg/injection, schedule: Q01DX005 (ip), vehicle: other 90 % of control | dose: 50.0 mg/kg/injection, schedule: Q01DX005 (ip), vehicle: other 92 % of control | dose: 100.0 mg/kg/injection, schedule: Q01DX005 (ip), vehicle: other 89 % of control | dose: 200.0 mg/kg/injection, schedule: Q01DX005 (ip), vehicle: other 92 % of control

CC(=O)OC1CCC2(C)C(=CCC3C2CCC2(C)C(/C(C)=N/O)=CCC32)C1 (centres undefined)
inactive: [4] 96 % of control | [6] 100 % of control | [9] 91 % of control

CCOC(=O)Nc1ccc(C)c(Cl)c1
inactive: dose: 100.0 mg/kg/injection, schedule: Q01DX009 (ip), vehicle: Klucel (hydroxypropylcellulose) (HPC) 105 % of control | dose: 200.0 mg/kg/injection, schedule: Q01DX009 (ip), vehicle: Klucel (hydroxypropylcellulose) (HPC) 108 % of control | dose: 400.0 mg/kg/injection, schedule: Q01DX009 (ip), vehicle: Klucel (hydroxypropylcellulose) (HPC) 103 % of control

CC(=O)c1ccc(NC(=S)Nc2ccc(C(C)=O)cc2)cc1
inactive: dose: 5.0 mg/kg/injection, schedule: Q01DX009 (ip), vehicle: saline with Tween-80 87 % of control | dose: 10.0 mg/kg/injection, schedule: Q01DX009 (ip), vehicle: saline with Tween-80 103 % of control | dose: 20.0 mg/kg/injection, schedule: Q01DX009 (ip), vehicle: saline with Tween-80 98 % of control and 115 % of control | dose: 40.0 mg/kg/injection, schedule: Q01DX009 (ip), vehicle: saline with Tween-80 97 % of control and 102 % of control | dose: 80.0 mg/kg/injection, schedule: Q01DX009 (ip), vehicle: saline with Tween-80 86 % of control | dose: 84.0 mg/kg/injection, schedule: Q01DX009 (ip), vehicle: saline with Tween-80 98 % of control | dose: 320.0 mg/kg/injection, schedule: Q01DX009 (ip), vehicle: saline with Tween-80 102 % of control

Cc1ccc(S(=O)(=O)N(CCCc2ccccc2)c2ccc(C(=O)NC(CCC(=O)O)C(=O)O)cc2)cc1 (centres undefined)
inactive: dose: 75.0 mg/kg/injection, schedule: Q01DX001 (ip), vehicle: gum acacia 101 % of control | dose: 150.0 mg/kg/injection, schedule: Q01DX001 (ip), vehicle: gum acacia 107 % of control | dose: 300.0 mg/kg/injection, schedule: Q01DX001 (ip), vehicle: gum acacia 93 % of control

CC(C)=CCOc1ccc2c(c1)OCO2
inactive: [10] 91 % of control | [11] 103 % of control

O=C(c1ccccc1)c1cc(-c2ccccc2)n(C2CCCCC2)c1
inactive: dose: 25.0 mg/kg/injection, schedule: Q01DX009 (ip), vehicle: saline with Tween-80 96 % of control and 120 % of control | dose: 50.0 mg/kg/injection, schedule: Q01DX009 (ip), vehicle: saline with Tween-80 94 % of control and 95 % of control and 98 % of control | [6] 91 % of control and 92 % of control
